{
  "source": "patent US7195893B2",
  "about": "“Nucleic acids encoding α2δ calcium channel subunits and methods for making and using them” (Neuromed Pharmaceuticals Ltd., priority 2003, dated 2007)",
  "molecules": {"B1": {"name": "chicken α2δ subunit: α2δ-1 calcium channel subunit of White Leghorn chicken, SEQ ID NO:2, 1,087 amino acids (protein, listed as Gallus domesticus)", "chain": "MAAGWLLVFSLTLFQSLVMNHSSEGPFPSPTTIKSWVDKMQEDLITLARTASGVEQLAAIYLKNKDLYTVEANNPRQLVEIAARDIEKLLSNRSKALVRLAKEAEKYQASHQWRDEFGNNDIIYYNAKDDQNDPEKNDTESGSQRIRPVFEEDPVFRRQTSYQHAAVHIPTDIYEGSTIVLNELNWTAALDDVFKRNREEDPTLLWQVFGSATGLARYYPASPWVDNSRTPNKIDLYDVRRRPWYIQGAASPKDMLILVDASGSVSGLTLKLIRTSVIEMLETLSDDDFVNVVSFNNNAQNVSCFNHLVQANVRNKKKLKEAVDKISAKGITDYKKGFSYAFEQLLNHSVSRANCNKIIMLFTDGGEERAQEIFHKYNEDKKVRVFTFSVGQHNYDKGPIQWMACENKGYYYEIPSIGAIRINTQEYLDVLGRPMVLAGEKAKQVQWTNVYLDALELGLVITGTLPVFNLTKEQNGKINQLILGVMGVDVSLEDIKKLTPRFTLCPNGYYFAIDPNGYVLLHPNLQPKNPKSQEPVTLDFLDAELENDIKVEIRKKMIDGESGEKTFETLVKSQDERYIDKGNRTYTWTAVNGTDYSLALVLPSYSFYYIKAKIEEPITQARLEIKKDSETLKIDHFDEAGYTFIAPREYCTDVKKSENNTEFLLNFNEFIDRNTPSSPSCNTDMVIRVLLDAGFTNELAQNYWSKLYLDGVVAQFVVTDGGITRVFPKRAGEDWLENAETYEVSFYKRSLDNDNYIFTAPYYNKSGANSYESGIMVSKAVEITINGKLLKPAVVGIKIDAMKWMENFTTTTIKSLCNSEICGCEKNSMHVDCVILDDGGFLLMSNRDEYTHQIGRFFGEIDPGLMRNLINMSLYAFNKSYDYQSVCDPEEEPKQGAGLRSAYVPTIADILQLGWWASAAAWSILQQLFLSLTFPRFLEAADMEDDDFSTALPKTSCITEQTQYFFENDDKSFIGIVDCINCSRLYHAEKISNTNLVFIISDSQLLCRSCDPKPLMQAEKPDEGPNPCEMVKQPRYRKGPDVCFDEAKQEDSADCGGASGLSPSLWSMVGIQLVLLWLLSGSRHYQL"}},
  "key": {"[1]": {"target": "T1, rat α1B+β1b+chicken α2δ Ca2+ channel (Rattus norvegicus, UniProt Q02294)", "T1 construct": "expressed in transfected cells; host or cells: HEK 293", "T1 sequence (Q02294 whole entry)": "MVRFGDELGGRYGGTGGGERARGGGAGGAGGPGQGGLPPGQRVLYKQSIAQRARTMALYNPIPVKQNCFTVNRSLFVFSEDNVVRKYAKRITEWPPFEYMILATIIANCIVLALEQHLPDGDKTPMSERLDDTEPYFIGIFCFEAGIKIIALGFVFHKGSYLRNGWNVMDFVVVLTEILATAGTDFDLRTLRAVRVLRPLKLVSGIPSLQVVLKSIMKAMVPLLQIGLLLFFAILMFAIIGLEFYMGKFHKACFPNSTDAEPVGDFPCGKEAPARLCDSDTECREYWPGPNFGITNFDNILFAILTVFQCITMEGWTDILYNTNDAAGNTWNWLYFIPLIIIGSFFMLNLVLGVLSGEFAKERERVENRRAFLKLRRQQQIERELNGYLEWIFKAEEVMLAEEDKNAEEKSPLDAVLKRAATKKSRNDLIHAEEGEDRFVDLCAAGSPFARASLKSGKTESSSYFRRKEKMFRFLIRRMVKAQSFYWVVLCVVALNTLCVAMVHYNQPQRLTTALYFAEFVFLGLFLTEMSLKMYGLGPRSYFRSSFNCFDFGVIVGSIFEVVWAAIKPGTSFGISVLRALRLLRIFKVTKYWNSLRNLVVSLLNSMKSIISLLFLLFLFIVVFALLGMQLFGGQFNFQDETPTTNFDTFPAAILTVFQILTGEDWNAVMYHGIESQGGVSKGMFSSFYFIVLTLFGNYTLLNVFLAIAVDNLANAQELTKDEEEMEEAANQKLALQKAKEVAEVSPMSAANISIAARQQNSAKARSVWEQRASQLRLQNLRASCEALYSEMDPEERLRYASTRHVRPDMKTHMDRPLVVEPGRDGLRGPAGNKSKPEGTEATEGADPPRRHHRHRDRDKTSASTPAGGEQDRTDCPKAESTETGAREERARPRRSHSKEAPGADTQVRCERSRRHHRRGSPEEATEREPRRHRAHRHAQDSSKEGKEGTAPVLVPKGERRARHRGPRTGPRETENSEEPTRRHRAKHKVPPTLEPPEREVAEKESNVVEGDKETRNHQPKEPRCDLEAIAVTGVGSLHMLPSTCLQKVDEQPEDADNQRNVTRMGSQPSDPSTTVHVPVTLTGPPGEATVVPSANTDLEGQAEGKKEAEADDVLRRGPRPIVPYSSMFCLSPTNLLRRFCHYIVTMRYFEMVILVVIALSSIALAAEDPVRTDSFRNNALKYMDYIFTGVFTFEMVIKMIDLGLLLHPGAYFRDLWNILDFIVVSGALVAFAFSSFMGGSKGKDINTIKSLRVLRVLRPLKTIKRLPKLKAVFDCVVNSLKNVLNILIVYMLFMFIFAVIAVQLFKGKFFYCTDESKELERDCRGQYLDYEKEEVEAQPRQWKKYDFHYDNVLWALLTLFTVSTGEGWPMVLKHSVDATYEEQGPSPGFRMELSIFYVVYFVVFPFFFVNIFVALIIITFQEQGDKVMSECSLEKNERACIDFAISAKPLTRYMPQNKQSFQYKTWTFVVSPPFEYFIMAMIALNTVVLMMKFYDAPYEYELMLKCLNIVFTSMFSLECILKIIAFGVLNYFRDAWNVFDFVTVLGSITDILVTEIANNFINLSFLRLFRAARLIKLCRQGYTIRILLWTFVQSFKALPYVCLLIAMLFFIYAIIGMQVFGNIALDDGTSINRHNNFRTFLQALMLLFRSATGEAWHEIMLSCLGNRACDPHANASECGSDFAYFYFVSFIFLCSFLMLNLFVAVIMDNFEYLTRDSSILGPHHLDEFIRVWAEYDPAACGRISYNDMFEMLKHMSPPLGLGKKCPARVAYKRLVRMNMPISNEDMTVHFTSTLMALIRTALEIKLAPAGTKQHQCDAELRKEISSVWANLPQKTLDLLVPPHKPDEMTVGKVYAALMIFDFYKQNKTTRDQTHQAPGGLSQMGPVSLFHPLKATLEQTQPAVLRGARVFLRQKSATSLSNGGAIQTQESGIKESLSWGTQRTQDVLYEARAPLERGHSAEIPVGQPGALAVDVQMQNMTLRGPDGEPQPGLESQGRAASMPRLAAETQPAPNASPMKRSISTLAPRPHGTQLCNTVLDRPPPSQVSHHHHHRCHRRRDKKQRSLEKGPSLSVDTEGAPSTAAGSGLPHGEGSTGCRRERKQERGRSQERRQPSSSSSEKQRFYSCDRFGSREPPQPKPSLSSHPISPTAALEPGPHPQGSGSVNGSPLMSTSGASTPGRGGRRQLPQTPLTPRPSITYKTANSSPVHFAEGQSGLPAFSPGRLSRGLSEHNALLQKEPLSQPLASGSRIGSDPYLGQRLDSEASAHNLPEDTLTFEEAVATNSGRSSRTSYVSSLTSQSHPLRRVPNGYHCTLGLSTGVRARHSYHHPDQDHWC", "assay": "whole-cell patch clamp screening for calcium channel blockers", "assay_type": "cell-based", "details": "600 nM, HEK cells, n=3, FIG. 4", "protocol": "After an incubation period of 24 to 72 hrs, the culture medium was removed and replaced with an external recording solution containing (in mM) 5 BaCl, 129 CsCl, 1 MgCl2, 10 HEPES, 10 glucose, pH 7.4 with CsOH. Whole-cell patch clamp recordings were made with an Axopatch 200B amplifier (Axon Instruments, USA). Recording electrodes with typical resistances of 4–8 MΩ were backfilled with (in mM) 108 caesium-methansulfonate, 2 MgCl2, 10 HEPES, 11 EGTA, 2 ATP, pH 7.2 with CsOH. To create command potentials and acquire data, Clampex 8.2 software (Axon Instruments, USA) and a Digidata 1322A A/D converter interface (Axon Instrument, USA) were used. Currents were elicited at test potential of +20 mV (50 ms duration) from a holding potential of −80 mV. Leak and capacitance currents were subtracted on-line with a standard P/4 protocol. Evoked currents were filtered by a low-pass Bessel filter set at 1 kHz. Signals were acquired at 2.02 kHz and analyzed offline using pClamp 8.2 (Axon Instruments, USA) and Origin (OriginLab Corporation, USA) software. The effects of co-expressing the α2δ subunit of Example 1 with the rat α1B+β1b calcium channel subunits were tested by comparing average current density (Ipeak/cell capacitance) with and without α2δ.\nTo screen for calcium channel blockers, the whole-cell patch clamp recording technique used was as described in Example 2. […]"}, "α2δ-2": {"target": "α2δ-2 (Homo sapiens, UniProt Q9NY47)", "sequence (Q9NY47 19-1150)": "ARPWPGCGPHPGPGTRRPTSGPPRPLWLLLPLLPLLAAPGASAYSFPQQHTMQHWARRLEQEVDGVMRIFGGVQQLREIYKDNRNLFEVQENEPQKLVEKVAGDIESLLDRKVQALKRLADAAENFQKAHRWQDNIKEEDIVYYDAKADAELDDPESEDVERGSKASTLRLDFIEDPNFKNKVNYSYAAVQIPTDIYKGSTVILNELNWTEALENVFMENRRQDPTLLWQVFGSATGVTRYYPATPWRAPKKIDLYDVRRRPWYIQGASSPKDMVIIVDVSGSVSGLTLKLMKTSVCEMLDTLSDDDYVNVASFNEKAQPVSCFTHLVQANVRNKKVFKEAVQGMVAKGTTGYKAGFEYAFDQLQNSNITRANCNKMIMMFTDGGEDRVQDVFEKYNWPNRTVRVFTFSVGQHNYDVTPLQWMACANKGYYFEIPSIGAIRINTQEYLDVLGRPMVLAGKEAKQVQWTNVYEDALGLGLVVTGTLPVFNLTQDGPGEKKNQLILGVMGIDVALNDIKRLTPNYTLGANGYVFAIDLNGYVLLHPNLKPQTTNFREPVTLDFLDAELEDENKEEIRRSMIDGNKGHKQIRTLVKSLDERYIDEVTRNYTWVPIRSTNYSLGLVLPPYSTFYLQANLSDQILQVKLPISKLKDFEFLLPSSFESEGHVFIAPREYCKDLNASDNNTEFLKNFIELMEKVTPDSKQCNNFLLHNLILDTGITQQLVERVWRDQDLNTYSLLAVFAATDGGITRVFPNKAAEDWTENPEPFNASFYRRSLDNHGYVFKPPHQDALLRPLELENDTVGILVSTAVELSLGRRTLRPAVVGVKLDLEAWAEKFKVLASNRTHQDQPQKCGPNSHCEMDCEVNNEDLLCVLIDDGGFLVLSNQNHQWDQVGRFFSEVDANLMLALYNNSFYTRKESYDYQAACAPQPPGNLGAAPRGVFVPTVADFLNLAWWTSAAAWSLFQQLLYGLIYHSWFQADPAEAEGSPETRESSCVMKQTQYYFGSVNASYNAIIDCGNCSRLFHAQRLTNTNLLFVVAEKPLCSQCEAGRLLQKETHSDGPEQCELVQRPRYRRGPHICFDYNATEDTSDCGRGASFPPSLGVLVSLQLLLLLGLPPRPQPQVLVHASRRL", "details": "Marais et al. 2001; cited from earlier work"}, "rat α1B+β1b Ca2+ channel": {"tested_on": "rat α1B+β1b Ca2+ channel", "assay": "whole-cell patch clamp, average current density with and without α2δ in transfected HEK 293 cells", "assay_type": "cell-based", "details": "HEK 293, 6 cells, test potential +20 mV, holding −80 mV, mean±S.E.M.", "protocol": "Human embryonic kidney cells, HEK 293 (ATCC# CRL 1573) were grown in standard DMEM medium supplemented with 2 mM glutamine and 10% fetal bovine serum and transfected by a standard calcium-phosphate-DNA co-precipitation method or by lipofection with the full-length chicken α2δ-1 calcium channel cDNA in the mammalian expression vector pBK-RSV (see Current protocols in Molecular Biology): alone or in combination with expression vectors encoding α1 and β subunits, and with vectors expressing green fluorescent protein (GFP).\nAfter an incubation period of 24 to 72 hrs, the culture medium was removed and replaced with an external recording solution containing (in mM) 5 BaCl, 129 CsCl, 1 MgCl2, 10 HEPES, 10 glucose, pH 7.4 with CsOH. Whole-cell patch clamp recordings were made with an Axopatch 200B amplifier (Axon Instruments, USA). Recording electrodes with typical resistances of 4–8 MΩ were backfilled with (in mM) 108 caesium-methansulfonate, 2 MgCl2, 10 HEPES, 11 EGTA, 2 ATP, pH 7.2 with CsOH. To create command potentials and acquire data, Clampex 8.2 software (Axon Instruments, USA) and a Digidata 1322A A/D converter interface (Axon Instrument, USA) were used. […] Signals were acquired at 2.02 kHz and analyzed offline using pClamp 8.2 (Axon Instruments, USA) and Origin (OriginLab Corporation, USA) software. […]"}},
  "note": "Counter-ions that a name gives are not always drawn.",
  "data": [
    {"molecule": "O=C(CC(c1ccccc1)c1ccccc1)N1CCN(C(c2ccccc2)c2ccccc2)CC1", "note": "[NMED 160 (HCl)]", "values": [
      {"measurement": "inhibition of Ca2+ channel current (average current density)", "setting": "[1]", "result": "inhibition"}
    ]},
    {"molecule": "NCC1(CC(=O)O)CCCCC1", "note": "[Gabapentin]", "values": [
      {"measurement": "binding to α2δ-2", "setting": "α2δ-2", "result": "bind"}
    ]},
    {"molecule": "B1", "values": [
      {"measurement": "mean current density when coexpressed with chicken α2δ subunit", "setting": "rat α1B+β1b Ca2+ channel", "result": "−74.5±14.0", "unit": "pA/pF"}
    ]}
  ]
}
